# Assay results published in patent publication US20130178493A1, “USE OF 14,15-DIHYDRO-20,21-DINOREBURNAMENIN-14-OL FOR THE TREATMENT AND/OR PREVENTION OF SERIOUS DEPRESSION AND SLEEP/WAKING CYCLE DISORDERS” (BIOCORTECH, priority 2004, published 2013).
# Columns and labels:
# [1] = test system: immunopositive neurones for TH in LC; test: Immunocytochemistry of tyrosine hydroxylase immunopositive neurones in locus caeruleus after IP injection; format: in vivo, Balb/c mice
# Experimental: (§1) The anatomical data presented in table 1 below were obtained three days after a single injection or after a sequential treatment of five injections at a rate of one injection every three days. Immunopositive cells for tyrosine hydroxylase (TH) and fibres containing noradrenaline were identified by immunocytochemistry in the examined brain areas. Sleep records were made on a group of ten Balb/c mice. The electroencephalogram for each animal was recorded continuously for five days for acquisition of basal data about the wake-sleep cycle. Five animals were then treated by five IP injections every three days starting from day 5 until day 17 of the experiment. The other five animals were injected with the excipient at the same time After the last injection, all mice were deprived of sleep for 6 hours and records went on for another two consecutive days to measure the total REM sleep recovery. The given BC19 dose is 20 mg/kg for each injection, in all these experiments.
# [2] = test system: fibres containing noradrenaline in the prefrontal cortex; test: Density of noradrenaline-containing fibres in prefrontal cortex after sequential treatment; format: in vivo, Balb/c mice
# Experimental: as §1
# [3] = test system: Balb/c mice; test: REM sleep recovery after sleep deprivation (electroencephalogram records); format: in vivo
# Experimental: as §1
# [4] = test system: mice; conditions: mouse, in vivo, iv
# Experimental: Acute toxicity is determined on batches of 10 male and female mice, weighing from 20 to 22 g, fasting since the previous evening.
# The product is administered intravenously, in solution in physiological saline solution, to which a few drops of hydrochloric acid have been added (products to be tested are then in hydrochloric solution).
# Mortality is recorded daily for one week. Values of the lethal doses 50 (LD 50) were determined using the method given by Lichfield J. T. and Wilcoxon F. (J. Pharm. Exp. Therap. 96:99, 1949).
# [5] = test system: cells expressing hypocretine in the hypothalamus; test: Number of hypocretine-expressing neurones in hypothalamus after IP injection; format: in vivo, Balb/c mice
# [6] = sacrifice 3 days after a single IP injection (20 mg/kg), Balb/c mice
smiles,measurement,setting,value
"OC1CC2CCCN3CCc4c(n1c1ccccc41)C23 (racemic) [BC19, 14,15-dihydro 20,21-dinoreburnamenin14-ol]",activity at 20 mg/kg,"[1]; Mus musculus, 72 h, sacrifice 3 days after a single IP injection (20 mg/kg), Balb/c mice, read-out: Total number of immunopositive neurones for TH in LC, % of controls",135%
same,Effect on noradrenergic phenotype in locus caeruleus (in words),[1]; injected into Balb/c mice,restoring the noradrenergic phenotype in a significant population of locus caeruleus
same,Total number of immunopositive neurones for TH in LC,[1]; [6],1228 ± 24
same,activity at 20 mg/kg,"[2]; Mus musculus, 72 h, sequential treatment: five IP injections, one every three days, 20 mg/kg, Balb/c mice, read-out: Density of fibres containing noradrenaline in the prefrontal cortex, % of controls",156%
same,Effect on noradrenergic innervation in the prefrontal cortex (in words),[2]; injected into Balb/c mice,restoring noradrenergic innervation in the prefrontal cortex
same,Density of fibres containing noradrenaline in the prefrontal cortex,"[2]; sequential treatment: five IP injections, one every three days, 20 mg/kg, Balb/c mice",0.050 ± 0.003 μm/μm^2
same,activity at 20 mg/kg,"[3]; Mus musculus, deprived mice (6 hours sleep deprivation), after five IP injections every three days, 20 mg/kg, Balb/c mice, read-out: Duration of REM sleep during the recovery period, % of controls without sleep deprivation",151 ± 11%
same,Duration of REM sleep during the recovery period,"[3]; deprived mice (6 hours sleep deprivation), after five IP injections every three days, 20 mg/kg, Balb/c mice",110 ± 8 mn
same,Effect on recovery of REM sleep after sleep privation (in words),[3]; injected into Balb/c mice,reversing the inability of these consanguine mice to recover REM
same,"Acute toxicity (mortality, LD 50)",[4],did not demonstrate any toxicity
same,Effect on hypocretine phenotype in neurones of the hypothalamus (in words),[5]; injected into Balb/c mice,restoring the hypocretine phenotype in a sub-population of neurones of the hypothalamus
same,Number of neurones in the posterior third of the group of cells expressing hypocretine in the hypothalamus,[5]; [6],671 ± 24
same,"Number of neurones in the posterior third of the group of cells expressing hypocretine in the hypothalamus, % of controls",[5]; [6],(121 ± 4%)
